From US4080466A, “Pharmaceutical compositions containing 4-hydroxyl-1,3-dithiolan-2-ylidene malonates” (Nihon Nohyaku Co., Ltd., priority 1976, dated 1978)

Assays:
acute oral toxicity = conditions: mouse, in vivo, male mice
Source text: Further, these compounds have no detrimental effects on test animals administered therewith, so far as the doses thereof are within an ordinary administration range.

[1] = system: alcohol metabolic function of liver; test: Effect on Concentration of Ethyl alcohol in the Blood; assay type: in vivo, mice; conditions: 250 mg/kg oral, 6 h before ethyl alcohol 1,000 mg/kg
Experimental: After 6 hours, 1,000 mg/kg of ethyl alcohol was given orally. Blood was taken in a capillary from caudal vein at the time indicated in the results. The plasma was obtained by centrifugation. The concentration of ethyl alcohol in the plasma was measured by FID type gas liquid chromatography. Five mice were used for each group.

glucose metabolism [2] = test: Effect on glucose metabolism; assay type: in vivo, mice; conditions: 250 mg/kg oral, 6 h before glucose 4.0 g/kg; 0 min
glucose metabolism [3] = test: Effect on glucose metabolism; assay type: in vivo, mice; conditions: 250 mg/kg oral, 6 h before glucose 4.0 g/kg
Experimental: The test compounds dissolved in olive oil and administered orally at the dose of 250 mg/kg to the mice. After 6 hours, 4.0 g/kg of glucose was orally administered. The same amount of glucose was given to the control animals. 0.02 ml of blood was taken from caudal vein of the mice at 30, 60, 90 and 120 min. after glucose administration. Blood sugar was measured by the procedure of Somogyi-Nelson. Number of animals used was 5 to 6 mice for each treatment.

[4] = system: acute liver damage induced by carbon tetrachloride; test: Protective Effect on Acute Liver Damage associated with Centrilobular Necrosis (carbon tetrachloride); assay type: in vivo, mice (dd-strain); conditions: 250 mg/kg oral, average of 5 to 6 mice; for Liver damage index: 6 h before CCl4 (0.05 ml/kg oral), score 0 Normal, 2 slight, 4 clear, 6 heavy damage; for p-GPT (plasma glutamic-pyruvic transaminase activity): 6 h before CCl4, 24 h after CCl4, values over 1,000 regarded as 1,000
Source text: Carbon tetrachloride (CCl4) administration induces centrilobular necrosis of the liver associated with loss of diphosphopyridine nucleotide, hepatic glycogen, coenzyme A and increase in neutral fat. Release of several enzymes from the hepatocytes, and increase of enzyme activities in the plasma are recognized as the result of the damage of the liver. A suitable means for evaluating the degree of damage induced by CCl4 or the degree of protection afforded by drugs is to study the plasma glutamic-pyruvic transminase (p-GPT) activity.
Methods: The test compounds were dissolved or suspended in olive oil and administered orally at the dose of 250 mg/kg to the mice (Four-week-old male mice-dd strain). After 6 hours, CCl4 was administered orally (0.05 ml/kg as olive oil solution). Animals were killed 24 hours after CCl4 administration, and the liver was grossly observed. The plasma was obtained by centrifugation. Activities of p-GPT were determined by the method of Reitman and Frankel and expressed in Karmen units.
Score for liver damage index was as follows:
4 Clearly observable damage
Each figure indicates average of 5 to 6 mice. Values of p-GPT over 1,000 Karmen unit regarded as 1,000 for calculation of average for convenience.

[5] = system: acute liver damage induced by allyl alcohol; test: Protective Effect on Acute Liver Damage associated with Periportal Necrosis (allyl alcohol), BSP test; assay type: in vivo, mouse (dd-strain); conditions: 100 mg/kg oral, 6 h before allyl alcohol (0.075 mg/kg oral); 24 h
Experimental: The compund of this invention or anethol trithion was orally administered to the male mouse (4 week-old, dd-strain) at the dose of 100 mg/kg. Six hours after it, allyl alcohol was orally administered at the dose of 0.075 mg/kg. Twenty four hours after it, the animals were sacrificed to collect blood samples.

[6] = system: acute hepatitis induced by D-galactosamine; test: Protective Effect on Acute Hepatitis associated with Mesenchymal Reaction and Discrete Lobular Necrosis (D-galactosamine); assay type: in vivo, rat (SD strain); conditions: 100 mg/kg oral, 6 h before D-galactosamine 600 mg/kg i.p. (+ 300 mg/kg)
Experimental: D-Galactosamine is a compound which induces a discrete lobular necrosis associated with mesenchymal reaction similar to the change observed in human viral hepatitis, so that it is frequently used in producing a model for viral hepatitis.
The compound of this invention or anethol trithion was administered orally to the male rat (SD strain) at the dose of 100 mg/kg. Six hours after it, D-galactosamine was intraperitoneally administered at the dose of 600 mg/kg. Four hours after it, an additional 300 mg/kg was administered intraperitoneally. Eight hours after it, the animals were sacrificed to collect the blood samples. P-GPT activity and triglyceride in the liver were measured to evaluate the effect of the compound of this invention.

| Compound | LD50 (acute oral toxicity) [mg/kg] | Concentration of Ethyl alcohol in Plasma ([1]; 0 min) [ppm] | Concentration of Ethyl alcohol in Plasma ([1]; 5 min) [ppm] | Concentration of Ethyl alcohol in Plasma ([1]; 15 min) [ppm] | Concentration of Ethyl alcohol in Plasma ([1]; 30 min) [ppm] | Concentration of Ethyl alcohol in Plasma ([1]; 60 min) [ppm] | Blood Sugar (glucose metabolism [2]) [mg/dL] | Blood Sugar (glucose metabolism [3]; 30 min) [mg/dL] | Blood Sugar (glucose metabolism [3]; 60 min) [mg/dL] | Blood Sugar (glucose metabolism [3]; 90 min) [mg/dL] | Blood Sugar (glucose metabolism [3]; 120 min) [mg/dL] | Liver damage index [4] | p-GPT (plasma glutamic-pyruvic transaminase activity) [4] [Karmen units] | BSP (residual quantity) [5] | Triglyceride in liver [6] [mg/g] | p-GPT [6] [Karmen unit] |
| --- | --- | --- | --- | --- | --- | --- | --- | --- | --- | --- | --- | --- | --- | --- | --- | --- |
| CC(C)OC(=O)C(C(=O)OC(C)C)=C1SCC(O)S1 (centres unmarked) [Compound 2, Diisopropyl 4-hydroxy-1,3-dithiolan-2-ylidene malonate] | > 6590 | 10±7 | 711±95 | 558±104 | 426±96 | 13±6 | 136 ± 12.3 | 247 ± 20.2 | 212 ± 13.1 | 177 ± 15.5 | 130 ± 10.8 | 0.1 | 20 | 17.1 ± 3.8 | 7.0 ± 0.82 | 73 ± 13 |
| CCOC(=O)C(C(=O)OC(C)C)=C1SCC(O)S1 (centres unmarked) [Compound 4, Ethyl isopropyl 4-hydroxy-1,3-dithiolan-2-ylidene malonate] |  | 9±4 | 730±92 | 536±113 | 373±105 | 7±2 |  |  |  |  |  | 0.1 | 40 |  |  |  |
